For test [1], the system named is Mus musculus. The test can be described thus: Analgesic activity in Kunming mouse assessed as inhibition of acetic acid-induced writhing at 5 mg/kg, ip pretreated with compound for 30 mins followed by acetic acid challenge and measured after 30 mins. The test is classed as functional, organism-based. As to conditions: time 60.0 min.
In test [2] the test system is Mus musculus. The test can be described thus: Analgesic activity in Kunming mouse assessed as inhibition of acetic acid-induced writhing at 1 mg/kg, ip pretreated with compound for 30 mins followed by acetic acid challenge and measured after 30 mins. The conditions noted are these: 1 h, time 60 min. The test is classed as functional.
Test [3] concerns Mus musculus. The test can be described thus: Analgesic activity in Kunming mouse assessed as inhibition of acetic acid-induced writhing at 0.2 mg/kg, ip pretreated with compound for 30 mins followed by acetic acid challenge and measured after 30 mins. It is filed as functional. The conditions noted are these: 1 h, time 60 min.
For test [4], the system named is Mus musculus. The test can be described thus: Analgesic activity in Kunming mouse assessed as inhibition of acetic acid-induced writhing at 0.04 mg/kg, ip pretreated with compound for 30 mins followed by acetic acid challenge and measured after 30 mins. It is filed as functional. The conditions noted are these: 1 h, time 60 min.

Activity calls are given as the source filed them. The calls are words filed in the database; no cut-off is given here.

With `C/C=C1\CN2[C@H]3C[C@@H]1[C@@H](CO)[C@@H]2Cc1c3[nH]c2ccccc12`, the outcome in test [1] was Active.
The same measure, in the same setting: the value for `C/C=C1\C[N@@+]2([O-])[C@H]3C[C@@H]1[C@@H](CO)[C@@H]2Cc1c3[nH]c2ccccc12` was “Active”; that for `C/C=C1\CN2[C@H]3C[C@@H]1[C@H](CO)[C@@H]2Cc1c3[nH]c2ccccc12` was “Active”.
For `C/C=C1\CN(C)[C@H]2C[C@@]3(C(=O)Nc4ccccc43)[C@H]3C[C@@H]1[C@@H]2CO3`, the result in test [1] was Active.
Consider `CC[C@@]12OC(=O)N[C@@H]1N(C)[C@H]1C[C@@]3(C(=O)N(OC)c4ccccc43)[C@H]3C[C@@H]2[C@@H]1CO3`, for which, in test [1], the outcome was Active. Besides, in test [2], the inhibition in vivo at 1 mg/kg was found to be 64.7%.
Regarding `COc1ccc2c(c1)N(OC)C(=O)[C@@]21C[C@@H]2N[C@](CO)([C@@H](C)O)[C@@H]3C[C@H]1OC[C@H]23`, the result in test [1] was Active.
In the case of `C/C=C1\C[N@+](C)([O-])[C@H]2C[C@@]3(C(=O)Nc4ccccc43)[C@H]3C[C@@H]1[C@@H]2CO3`, the result in test [1] was Active. The inhibition in vivo at 0.2 mg/kg in test [3] came out at 76.1%. The inhibition in vivo at 0.04 mg/kg in test [4] is 67.6%.
Take `c1ccc2[nH]c(-c3cc4c(cn3)CCCC4)cc2c1`: the outcome in test [1] was Active.
Same read-out and setting: the same measure for `C/C=C1\C[N@+](C)([O-])[C@H]2C[C@@]3(C(=O)N(OC)c4ccccc43)[C@H]3C[C@@H]1[C@@H]2CO3`: “Active”; for `CON1C(=O)[C@@]2(C[C@@H]3N[C@](CO)([C@@H](C)O)[C@@H]4C[C@H]2OC[C@H]34)c2ccccc21`: “Active”.
On the same count and under the same terms, the value for `C/C=C1\C[N@+](C)([O-])[C@H]2C[C@@]3(C(=O)N(OC)c4cc(O)ccc43)[C@H]3C[C@@H]1[C@@H]2CO3` was “Active”; that for `C/C=C1\CN(C)[C@H]2C[C@@]3(C(=O)N(OC)c4ccccc43)[C@H]3C[C@@H]1[C@@H]2CO3` was “Active”.
The same measure, in the same setting: the same measure for `C=C[C@@]12CN[C@@H]3C[C@]14C(=Nc1ccccc14)[C@H]1C[C@@H]2[C@@H]3CO1`: “Active”; for `C/C=C1\CN[C@H]2C[C@@]3(C(=O)N(OC)c4cc(OC)ccc43)[C@H]3C[C@@H]1[C@@H]2CO3`: “Active”; for `CC[C@@]1(CO)N[C@H]2C[C@@]3(C(=O)N(OC)c4ccccc43)[C@H]3C[C@@H]1[C@@H]2CO3`: “Active”.
Turning to `C/C=C1\CN(C)[C@H]2C[C@@]3(C(=O)N(OC)c4cc(O)ccc43)[C@H]3C[C@@H]1[C@@H]2CO3`, the outcome in test [1] was Active.
The same measure, in the same setting: the same measure for `C=CC12CN[C@@H]3[C@H]4CO[C@H](CC41)[C@]1(C(=O)Nc4ccccc41)[C@@H]32`: “Active”.

Values taken from ChEMBL document CHEMBL4819065, “Gelstriamine A, a Triamino Monoterpene Indole Alkaloid with a Caged 6/5/7/6/6/5 Scaffold and Analgesic Alkaloids from Gelsemium elegans Stems” (2021).
